According to US20080287299A1, “Use of Imidazole and/or Triazole Derivatives for Combating Plant Pests; as Well as Method for Controlling Diseases/Insects/Mites/Nematodes and Weeds, Particularly Foliar and/or Soil Diseases” (priority 2005, published 2008):

System: Phakopsora pachyrhizi
Assay: Greenhouse soybean rust test, plants at V5 stage, evaluated every 7 days
Type: in vivo
Settings: for SEVERITY OF RUST (% IFA) 7 DAT / SEVERITY OF RUST (% IFA) 14 DAT / SEVERITY OF RUST (% IFA) 21 DAT / SEVERITY OF RUST (% IFA) 28 DAT: soybean; for effective in controlling soybean rust: from 50 grams of active ingredient per hectare
Excerpt: Recent tests carried out in greenhouses the laboratory of FMC Quimica do Brasil Ltda. in Uberaba, MG, Brazil, show the highly fungicidal effect of said specific imidazole and/or triazole derivatives in combating diseases of plants, particularly against the attack by the fungus Phakopsora pachyrhizi on soybeans, as described hereinafter.
Experimental Outline Experimental Outline: entirely made with five repetitions, two plants per repetition, totaling 10 plants.
a) Preventive Mode: 30 days after plantation of the soybeans in plastic 2-liter pots and with corresponding volumes of soil, the soybean plants were at the V5 stage with six expanded folioles. At this moment, the compounds were sprayed and then, 48 hours afterwards, inoculation of the rust was effected. To effect the inoculation, one prepared a suspension of Phakopsora uredospores at the concentration of 2×10^4 spores/milliliters.
b) Healing mode: 30 days after plantation of the soybeans in 2-liter plastic pots and with a corresponding volume of soil, the soybean plants were at the V5 stage with six expanded folioles. At this moment, one effected the inoculation of the rust and then, 48 hours afterwards, the compounds were sprayed. To effect the inoculation, one prepared a suspension of Phakopsora uredospores at the concentration of 2×10^4 spores/milliliters.
Equipment: a manual sprayer commonly used in agriculture with 2-liter capacity.
Dosages: 50 to 300 grams per hectare of the active compound Itraconazole per liter diluted in water.
Evaluations of the Effectiveness of the Product: The evaluations were made every 7 days after application of the product, in a total of 4 evaluations. As an evaluation parameter one utilized the severity of the disease (percentage of foliar area attacked by rust) according to FIG. 1).
Dosages: 50 to 300 grams per hectare of the active compound Voriconazole per liter diluted in water.

With CC[C@@H]([C@H](C)O)n1ncn(-c2ccc(N3CCN(c4ccc(OC[C@@H]5CO[C@](Cn6cncn6)(c6ccc(F)cc6F)C5)cc4)CC3)cc2)c1=O [Posaconazole, 1-((1S,2S)-1-ethyl-2-hydroxypropyl)-4-{4-[4-(4-{[(5S,3R)-5-(2,4-difluorophenyl)-5-(1,2,4-triazolylmethyll)oxolan-3-yl]methoxy}phenyl)pipera-zinyl]phenyl}-1,2,4-triazolin-5-one] the “SEVERITY OF RUST (% IFA) 7 DAT” value (Table 6: 50 g ac/ha) was 11 % IFA, the “SEVERITY OF RUST (% IFA) 14 DAT” value (Table 6: 50 g ac/ha) was 13 % IFA and the “SEVERITY OF RUST (% IFA) 21 DAT” value (Table 6: 50 g ac/ha) was 15 % IFA. For the same compound, the “SEVERITY OF RUST (% IFA) 28 DAT” value (Table 6: 50 g ac/ha) was 14 % IFA, the “SEVERITY OF RUST (% IFA) 7 DAT” value (Table 6: 100 g ac/ha) was 5 % IFA and the “SEVERITY OF RUST (% IFA) 14 DAT” value (Table 6: 100 g ac/ha) was 8 % IFA. For the same compound, the “SEVERITY OF RUST (% IFA) 21 DAT” value (Table 6: 100 g ac/ha) was 12 % IFA, the “SEVERITY OF RUST (% IFA) 28 DAT” value (Table 6: 100 g ac/ha) was 13 % IFA and the “SEVERITY OF RUST (% IFA) 7 DAT” value (Table 6: 150 g ac/ha) was 0 % IFA. The “SEVERITY OF RUST (% IFA) 14 DAT” value (Table 6: 150 g ac/ha) was 6 % IFA, the “SEVERITY OF RUST (% IFA) 21 DAT” value (Table 6: 150 g ac/ha) was 9 % IFA and the “SEVERITY OF RUST (% IFA) 28 DAT” value (Table 6: 150 g ac/ha) was 12 % IFA. The “SEVERITY OF RUST (% IFA) 7 DAT” value (Table 6: 200 g ac/ha) was 3 % IFA, the “SEVERITY OF RUST (% IFA) 14 DAT” value (Table 6: 200 g ac/ha) was 0 % IFA and the “SEVERITY OF RUST (% IFA) 21 DAT” value (Table 6: 200 g ac/ha) was 6 % IFA. For the same compound, the “SEVERITY OF RUST (% IFA) 28 DAT” value (Table 6: 200 g ac/ha) was 9 % IFA, the “SEVERITY OF RUST (% IFA) 7 DAT” value (Table 6: 300 g ac/ha) was 0 % IFA and the “SEVERITY OF RUST (% IFA) 14 DAT” value (Table 6: 300 g ac/ha) was 0 % IFA. For the same compound, the “SEVERITY OF RUST (% IFA) 21 DAT” value (Table 6: 300 g ac/ha) was 3 % IFA, the “SEVERITY OF RUST (% IFA) 28 DAT” value (Table 6: 300 g ac/ha) was 7 % IFA and the “effective in controlling soybean rust” value was “effective in controlling soybean rust”.

For C[C@@H](c1nc(-c2ccc(C#N)cc2)cs1)[C@](O)(Cn1cncn1)c1ccc(F)cc1F [Ravuconazole, 4-[2-[(1R,2R)-2-(2,4-difluor-phenyl)-2-hydroxy-1-methyl-3-(1H-1,2,4-triazol-1-yl)propyl]4-thiazolyl]-benzonitriyl], the “SEVERITY OF RUST (% IFA) 7 DAT” value (Table 4: 50 g ca/ha) was 15 % IFA, the “SEVERITY OF RUST (% IFA) 14 DAT” value (Table 4: 50 g ca/ha) was 16 % IFA and the “SEVERITY OF RUST (% IFA) 21 DAT” value (Table 4: 50 g ca/ha) was 16 % IFA. For the same compound, the “SEVERITY OF RUST (% IFA) 28 DAT” value (Table 4: 50 g ca/ha) was 18 % IFA, the “SEVERITY OF RUST (% IFA) 7 DAT” value (Table 4: 100 g ca/ha) was 12 % IFA and the “SEVERITY OF RUST (% IFA) 14 DAT” value (Table 4: 100 g ca/ha) was 12 % IFA. The “SEVERITY OF RUST (% IFA) 21 DAT” value (Table 4: 100 g ca/ha) was 14 % IFA, the “SEVERITY OF RUST (% IFA) 28 DAT” value (Table 4: 100 g ca/ha) was 18 % IFA and the “SEVERITY OF RUST (% IFA) 7 DAT” value (Table 4: 150 g ca/ha) was 9 % IFA. For the same compound, the “SEVERITY OF RUST (% IFA) 14 DAT” value (Table 4: 150 g ca/ha) was 11 % IFA, the “SEVERITY OF RUST (% IFA) 21 DAT” value (Table 4: 150 g ca/ha) was 11 % IFA and the “SEVERITY OF RUST (% IFA) 28 DAT” value (Table 4: 150 g ca/ha) was 16 % IFA. The “SEVERITY OF RUST (% IFA) 7 DAT” value (Table 4: 200 g ca/ha) was 3 % IFA, the “SEVERITY OF RUST (% IFA) 14 DAT” value (Table 4: 200 g ca/ha) was 7 % IFA and the “SEVERITY OF RUST (% IFA) 21 DAT” value (Table 4: 200 g ca/ha) was 11 % IFA. For the same compound, the “SEVERITY OF RUST (% IFA) 28 DAT” value (Table 4: 200 g ca/ha) was 15 % IFA, the “SEVERITY OF RUST (% IFA) 7 DAT” value (Table 4: 300 g ca/ha) was 2 % IFA and the “SEVERITY OF RUST (% IFA) 14 DAT” value (Table 4: 300 g ca/ha) was 3 % IFA. The “SEVERITY OF RUST (% IFA) 21 DAT” value (Table 4: 300 g ca/ha) was 9 % IFA, the “SEVERITY OF RUST (% IFA) 28 DAT” value (Table 4: 300 g ca/ha) was 11 % IFA and the “effective in controlling soybean rust” value was “effective”.
